Article PMC6190829 (Journal of medicinal chemistry, 2018)
Values joined by “and” are separate entries in the source; they are usually repeats but may differ in a detail not shown here. Equal values may be shown once. “Also recorded” adds a separate entry of the source.

Legend:
[1] = system: HaCaT cells; test: Immunoblot of NRF2, NQO1, GCLM protein levels; assay type: cell-based, human; conditions: 10 μM
[2] = Kinetic aqueous solubility in buffer pH 7.4; assay type: physicochemical
[3] = Solubility in DMSO; assay type: physicochemical
[4] = system: Salmonella typhimurium (TA98, TA100, TA1535, TA1537); test: Mini-Ames assay, revertant colonies per strain; conditions: for Dose response of revertant increase: 6a: TA98 and TA100
[5] = Microsomal stability, mouse liver microsomes; assay type: in vitro ADME; conditions: 1 μM, 20 min, NADPH
[6] = system: Salmonella typhimurium (TA98, TA100, TA1535, TA1537) and Escherichia coli (WP2 uvrA (pKM101)); test: Mini-Ames assay, cytotoxicity and overall judgement over all strains; conditions: for Cytotoxicity in Mini-Ames assay: 1.5-1000 μg/well, any dose level; for Mutagenicity judgement: Mini-Ames, with and without S9
[7] = system: HaCaT cells; test: NRF2 target gene mRNA expression; assay type: cell-based, human; conditions: 10 μM
[8] = system: HaCaT cells; test: Nuclear accumulation of NRF2; assay type: cell-based, human; conditions: 10 μM, 6 and 24 hours, vs DMSO control
[9] = Compound stability
[10] = target: T1, Kelch domain of KEAP1 (Homo sapiens, UniProt Q14145); test: Fluorescence anisotropy; conditions: IC50 (nM) (95% CI), fluorescent NRF2 peptide / KEAP1 Kelch domain
T1 sequence (Q14145 321-609 limits assumed): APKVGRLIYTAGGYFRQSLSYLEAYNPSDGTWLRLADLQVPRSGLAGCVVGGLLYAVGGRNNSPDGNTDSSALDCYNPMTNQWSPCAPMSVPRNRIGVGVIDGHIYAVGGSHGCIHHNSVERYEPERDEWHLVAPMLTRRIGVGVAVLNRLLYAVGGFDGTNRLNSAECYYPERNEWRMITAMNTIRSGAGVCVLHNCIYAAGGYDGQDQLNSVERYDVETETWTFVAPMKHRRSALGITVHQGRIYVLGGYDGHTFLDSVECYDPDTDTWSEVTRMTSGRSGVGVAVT

[11] = target: T1, Kelch domain of KEAP1; test: Surface plasmon resonance assay
[12] = cited from earlier work
[13] = with S9 mix, higher dose levels, vs vehicle control

CC1(C)CC[C@]2(C(=O)n3ccnc3)CC[C@]3(C)[C@H](C(=O)C=C4[C@@]5(C)C=C(C#N)C(=O)C(C)(C)[C@@H]5CC[C@]43C)[C@@H]2C1 [CDDO-Im, reference compound]
GCLM protein level ([1]; 24 h, vs vehicle): significantly higher
NQO1 protein level ([1]; 24 h, vs vehicle): higher
NRF2 protein level ([1]; 24 h, vs vehicle): higher

COc1ccc(S(=O)(=O)Nc2ccc(NS(=O)(=O)c3ccc(OC)cc3)c3ccccc23)cc1 [Compound 5]
Aqueous solubility [2]: modest aqueous solubilities

COc1ccc(S(=O)(=O)N(CC(=O)O)c2ccc(N(CC(=O)O)S(=O)(=O)c3ccc(OC)cc3)c3ccccc23)cc1 [Compound 6a]
solubility [3]: ≤ 50 mg/mL
Dose response of revertant increase [4]: Dose response was also observed
Increase in revertants, TA100 [4, 13]: > 2 fold
Increase in revertants, TA1535 [4, 13]: > 3 fold
Compound remaining after incubation, mouse liver microsomes [5]: stable
Cytotoxicity in Mini-Ames assay [6]: No cytotoxicity
Mutagenicity judgement [6]: positive for mutagenicity

COc1ccc(S(=O)(=O)N(CC(N)=O)c2ccc(N(CC(N)=O)S(=O)(=O)c3ccc(OC)cc3)c3ccccc23)cc1 [Compound 6b]
NQO1 protein level ([1]; 6 h, vs DMSO): modest increase
NRF2 protein level ([1]; 6 h, vs DMSO): modest increase
GCLM protein level ([1]; 24 h, vs vehicle): significantly higher
NQO1 protein level ([1]; 24 h, vs vehicle): Increased
NRF2 protein level ([1]; 24 h, vs vehicle): Increased
Aqueous solubility [2]: poor solubility

COc1ccc(S(=O)(=O)N(CC(=O)O)c2cnc(N(CC(=O)O)S(=O)(=O)c3ccc(OC)cc3)c3ccccc23)cc1 [Compound 17, 2,2’-(isoquinoline-1,4-diylbis(((4-methoxyphenyl)sulfonyl)azanediyl))diacetic acid]
GCLM protein level ([1]; 24 h, vs vehicle): significantly higher
NQO1 protein level ([1]; 24 h, vs vehicle): Increased
NRF2 protein level ([1]; 24 h, vs vehicle): Increased
Dose response of revertant increase [4]: No dose response was observed
SOD mRNA expression (not an NRF2 target gene) [7]: neither isoquinoline 17 nor quinoline 23 produced a significant increase
GCLC mRNA expression ([7]; 6 hours): significant increase
GCLM mRNA expression ([7]; 6 hours): significant increase
HMOX1 mRNA expression ([7]; 6 hours): significant increase
NQO1 mRNA expression ([7]; 24 hours): increase
Cytotoxicity in Mini-Ames assay [6]: No cytotoxicity
Mutagenicity judgement [6]: better mutagenic profile than naphthalene 6a

COc1ccc(S(=O)(=O)N(CC(=O)O)c2ccc(N(CC(=O)O)S(=O)(=O)c3ccc(OC)cc3)c3ncccc23)cc1 [Compound 23]
NQO1 protein level ([1]; 6 h, vs DMSO): modest increase
NRF2 protein level ([1]; 6 h, vs DMSO): modest increase
GCLM protein level ([1]; 24 h, vs vehicle): modestly increased
NQO1 protein level ([1]; 24 h, vs vehicle): no effect
NRF2 protein level ([1]; 24 h, vs vehicle): no effect
SOD mRNA expression (not an NRF2 target gene) [7]: neither isoquinoline 17 nor quinoline 23 produced a significant increase
GCLC mRNA expression ([7]; 6 and 24 hours): small increase
GCLM mRNA expression ([7]; 6 and 24 hours): small increase
HMOX1 mRNA expression ([7]; 6 and 24 hours): no increase
NQO1 mRNA expression ([7]; 6 and 24 hours): small increase
NRF2 accumulation in the nucleus [8]: small significant increase; also recorded: modest increase

COc1ccc(S(=O)(=O)N(CC(=O)O)c2ccc(N(CC(=O)O)S(=O)(=O)c3ccc(OC)cc3)c3[nH]ccc23)cc1 [Compound 29, 2,2’-((1H-indole-4,7-diyl)bis(((4-methoxyphenyl)sulfonyl)azanediyl))diacetic acid]
Stability of the compound [9]: unstable

COc1ccc(S(=O)(=O)Nc2nnc(N(CC(=O)O)S(=O)(=O)c3ccc(OC)cc3)c3ccccc23)cc1 [Compound 34, N-(4-((4-methoxyphenyl)sulfonamido)phthalazin-1-yl)-N-((4-methoxyphenyl)sulfonyl)glycine]
NQO1 protein level ([1]; 6 h, vs DMSO): no increase
NRF2 protein level ([1]; 6 h, vs DMSO): no increase
IC50 [10]: 1000 nM and 1100 nM
Kd [11]: > 10000 nM
Compound remaining after incubation, mouse liver microsomes [5]: comparable to the other compounds

COc1ccc(S(=O)(=O)N(CC(=O)O)c2cc(-c3ccccc3)cc(N(CC(=O)O)S(=O)(=O)c3ccc(OC)cc3)c2)cc1 [Compound 46, 2,2’-(1,1’-biphenyl]-3,5-diylbis(((4-methoxyphenyl)sulfonyl)azanediyl) diacetic acid]
IC50 [10]: > 25000 nM

Cc1cc(C)c(C)c(S(=O)(=O)Nc2ccc(N3CC[C@H](C(=O)O)C3)c3ccccc23)c1C [RA-839]
In vivo activity ([12]; ref Winkel et al.[31]): active in vivo only if Phase 1 metabolism were inhibited
In vivo metabolism ([12]; ref [31]): metabolized quickly in vivo
